Drawing on patent publication US7786299B2, “Methods for treating diseases or conditions using dihydropteridinone compounds” (Boehringer Ingelheim Pharma GmbH & Co. KG, priority 2003, dated 2010), this text covers IC50 for 42 molecules.

A value given as a limit tells only on which side of the number the result lay.

The subject of one assay is HeLaS3 cells. Put plainly: Measurement of cytotoxicity on cultivated human tumour cells (AlamarBlue). It counts as cell-based. Conditions: HeLa in Table 1; unit inferred. As for the experimental part: The activity of the compounds according to the invention was determined in the cytotoxicity test on cultivated human tumour cells and/or in a FACS analysis, for example on HeLaS3 cells.
Measurement of Cytotoxicity on Cultivated Human Tumour Cells
To measure the cytotoxicity on cultivated human tumour cells, cells of the cervical cancer tumour cell line HeLaS3 (obtained from American Type Culture Collection (ATCC)) in Ham's F12 Medium (Life Technologies) and 10% foetal calf serum (Life Technologies) were cultivated and harvested in the logarithmic growth phase. Then the HeLaS3 cells were placed in 96-well plates (Costar) at a density of 1000 cells per well and incubated overnight in an incubator (at 37° C. and 5% CO2), while on each plate 6 wells were filled only with medium (3 wells as a control of the medium, 3 wells for incubation with reduced AlamarBlue). The active substances were added to the cells in various concentrations (dissolved in DMSO; final concentration: 1%) (in each case as a triple measurement). After 72 hours' incubation, 20 μl of AlamarBlue (AccuMed International) were added to each well, and the cells were incubated for a further 7 hours. As a control, 20 μl of reduced Alamar Blue (AlamarBlue reagent which had been autoclaved for 30 min) were added to 3 wells. After 7 h incubation the colour change of the AlamarBlue reagent in the individual wells was determined in a Perkin Elmer fluorescence spectrophotometer (excitation 530 nm, emission 590 nm, slits 15, integrate time 0.1). The amount of AlamarBlue reagent reacted represents the metabolic activity of the cells. The relative cell activity was calculated as a percentage of the control (HeLa S3 cells without inhibitor) and the active substance concentration which inhibits the cell activity by 50% (IC^50) was obtained. The values were calculated from the average of three individual measurements, correcting for the control value (medium control).
In general terms: Resazurin is reduced to fluorescent resorufin, in cell work by metabolically active cells.

The next assay concerns H460-VINC. Put plainly: Cytotoxicity on H460-VINC cells (Table 1; method not given). It counts as cell-based. Conditions: H460-VINC of Table 1; unit inferred.

For `COc1cc(C(=O)NCC(C)(C)CN(C)C)ccc1Nc1ncc2c(n1)N(C1CCCCC1)[C@H](C)C(=O)N2C` [Example 86], the IC50 (as a rule, the concentration at which inhibition is half-maximal) was found to be 38 nM in the assay on HeLaS3 cells and 24 nM in the assay with H460-VINC.

In the case of `COc1cc(C(=O)NC(C)(C)CN2CCCC2)ccc1Nc1ncc2c(n1)N(C1CCCCC1)[C@H](C)C(=O)N2C` [Example 87], the IC50 in the assay on HeLaS3 cells was determined as 29 nM; in the assay on H460-VINC, 66 nM.

As for `CC[C@@H]1C(=O)N(C)c2cnc(Nc3ccc(C(=O)NC4CCN(C)CC4)cc3OC)nc2N1c1ccccc1` [Example 88], the values for the IC50 in the assay with HeLaS3 cells and with H460-VINC were 20 nM and 1020 nM, respectively.

Take `CC[C@@H]1C(=O)N(C)c2cnc(Nc3ccc(C(=O)NCC(C)(C)CN(C)C)cc3OC)nc2N1c1ccccc1` [Example 89]: the figures for the IC50 in the assay on HeLaS3 cells and in the assay on H460-VINC were 47 nM and 245 nM, respectively.

On to `CC[C@@H]1C(=O)N(C)c2cnc(Nc3ccc(C(=O)NC(C)(C)CN(C)C)cc3OC)nc2N1CCC(C)C` [Example 90], for which the values for the half-inhibitory concentration (IC50) in the assay with HeLaS3 cells and with H460-VINC were 32 nM and 137 nM, respectively.

With `COc1cc(C(=O)NC2CC3CCC(C2)N3C)ccc1Nc1ncc2c(n1)N(C1CCCCC1)[C@H](C)C(=O)N2C` (stereo partly drawn) [Example 91], the IC50 in the assay on HeLaS3 cells turned out to be 41 nM; in the assay on H460-VINC, 1780 nM.

`Cc1cc(C(=O)NC2CCN(C)CC2)ccc1Nc1ncc2c(n1)N(C1CCCCC1)[C@H](C)C(=O)N2C` [Example 94]: the IC50 turned out to be 18 nM in the assay on HeLaS3 cells and 510 nM in the assay with H460-VINC.

For the molecule `CC[C@@H]1C(=O)N(C)c2cnc(Nc3ccc(C(=O)NC4CCN(C)CC4)cc3OC)nc2N1C1CCCCC1` [Example 96], the values for the IC50 in the assay on HeLaS3 cells and with H460-VINC were 11 nM and 577 nM, respectively.

Take `CC[C@@H]1C(=O)N(C)c2cnc(Nc3ccc(C(=O)N[C@H]4CC[C@H](N5CCOCC5)CC4)cc3OC)nc2N1C1CCCCC1` [Example 97]: the IC50 in the assay with HeLaS3 cells amounted to 32 nM; in the assay on H460-VINC, 66 nM.

For the molecule `COc1cc(C(=O)N[C@H]2CC[C@H](N3CCCC3)CC2)ccc1Nc1ncc2c(n1)N(C1CCCCC1)[C@H](C)C(=O)N2C` [Example 98], the IC50 in the assay with HeLaS3 cells is 77 nM; in the assay on H460-VINC, 1320 nM.

`COc1cc(C(=O)NC2CCC(N3CCN(CC4CC4)CC3)CC2)ccc1Nc1ncc2c(n1)N(C(C)C)C(C)C(=O)N2C` (stereo not drawn) [Example 112]: the IC50 was 75 nM in the assay on HeLaS3 cells and 345 nM with H460-VINC.

As to `CCC1C(=O)N(C)c2cnc(Nc3ccc(C(=O)NC4CCC(N5CCN(C)CC5)CC4)cc3OC)nc2N1C(C)C` (stereo not drawn) [Example 113], the IC50 is 37 nM with HeLaS3 cells and 687 nM with H460-VINC.

`COc1cc(C(=O)NC2CCC(N(C)C)CC2)ccc1Nc1ncc2c(n1)N(CCC(C)C)C(C)C(=O)N2C` (stereo not drawn) [Example 114]: the figures for the IC50 in the assay with HeLaS3 cells and in the assay on H460-VINC were 64 nM and 766 nM, respectively.

On to `COc1cc(C(=O)NC2CCN(Cc3ccccc3)CC2)ccc1Nc1ncc2c(n1)N(C1CCCCC1)C(C)C(=O)N2C` (stereo not drawn) [Example 115], for which the IC50 in the assay with HeLaS3 cells stood at 16 nM; with H460-VINC it was 76 nM.

In the case of `CCC1C(=O)N(C)c2cnc(Nc3ccc(C(=O)NC4CCN(C5CCOCC5)CC4)cc3OC)nc2N1C1CCCC1` (stereo not drawn) [Example 116], the IC50 stood at 6 nM in the assay on HeLaS3 cells and 174 nM in the assay on H460-VINC.

Take `COc1cc(C(=O)NC2CC(C)(C)N(C)C(C)(C)C2)ccc1Nc1ncc2c(n1)N(C1CCCCC1)C(C)C(=O)N2C` (stereo not drawn) [Example 117]: the figures for the IC50 with HeLaS3 cells and with H460-VINC were 10 nM and 370 nM, respectively.

Regarding `COc1cc(C(=O)NC2CCC(N(C)C)CC2)ccc1Nc1ncc2c(n1)N(C1CCCCC1)C(C)C(=O)N2C` (stereo not drawn) [Example 118], the half-inhibitory concentration (IC50) amounted to 10 nM in the assay on HeLaS3 cells and 279 nM with H460-VINC.

Consider `CCN1CCC(NC(=O)c2ccc(Nc3ncc4c(n3)N(C3CCCCC3)C(C)C(=O)N4C)c(OC)c2)CC1` (stereo not drawn) [Example 119], for which the IC50 with HeLaS3 cells came out at 8 nM; with H460-VINC it was 438 nM.

For `COc1cc(C(=O)NC2CCN(C3CCOCC3)CC2)ccc1Nc1ncc2c(n1)N(C1CCCCC1)C(C)C(=O)N2C` (stereo not drawn) [Example 120], the IC50 with HeLaS3 cells is 14 nM; in the assay with H460-VINC, 374 nM.

Regarding `COc1cc(C(=O)NC2CCC(N3CCCCC3)CC2)ccc1Nc1ncc2c(n1)N(C1CCCCC1)C(C)C(=O)N2C` (stereo not drawn) [Example 126], the IC50 in the assay on HeLaS3 cells is 51 nM; in the assay on H460-VINC it was 742 nM.

As for `CCC1C(=O)N(C)c2cnc(Nc3ccc(C(=O)NC4CCC(N5CCCCC5)CC4)cc3OC)nc2N1C1CCCC1` (stereo not drawn) [Example 128], the IC50 was found to be 15 nM in the assay with HeLaS3 cells and 282 nM with H460-VINC.

For the molecule `CCC1C(=O)N(C)c2cnc(Nc3ccc(C(=O)NC4CCC(N5CCCCC5)CC4)cc3OC)nc2N1C(C)C` (stereo not drawn) [Example 129], the IC50 in the assay on HeLaS3 cells was 35 nM; in the assay on H460-VINC, 646 nM.

`COc1cc(C(=O)NC2CCC(N3CCOCC3)CC2)ccc1Nc1ncc2c(n1)N(C1CCCCC1)C(C)C(=O)N2C` (stereo not drawn) [Example 130]: the values for the IC50 with HeLaS3 cells and with H460-VINC were 15 nM and 91 nM, respectively.

With `CCC1C(=O)N(C)c2cnc(Nc3ccc(C(=O)NC4CCC(N5CCOCC5)CC4)cc3OC)nc2N1C1CCCC1` (stereo not drawn) [Example 131], the IC50 with HeLaS3 cells was 23 nM; in the assay on H460-VINC it was 101 nM.

As to `CCC1C(=O)N(C)c2cnc(Nc3ccc(C(=O)NC4CCC(N5CCOCC5)CC4)cc3OC)nc2N1C1CCCC1` (stereo not drawn) [Example 133], the IC50 worked out at 11 nM in the assay on HeLaS3 cells and 75 nM with H460-VINC.

Take `CCC1C(=O)N(C)c2cnc(Nc3ccc(C(=O)NC4CCC(N5CCCC5)CC4)cc3OC)nc2N1C(C)C` (stereo not drawn) [Example 135]: the IC50 turned out to be 12 nM with HeLaS3 cells and 699 nM with H460-VINC.

For the molecule `COc1cc(C(=O)NC2CCC(N3CCOCC3)CC2)ccc1Nc1ncc2c(n1)N(C1CCCCC1)C(C)C(=O)N2C` (stereo not drawn) [Example 137], the results for the IC50 in the assay with HeLaS3 cells and in the assay with H460-VINC were 39 nM and 148 nM, respectively.

`CCC1C(=O)N(C)c2cnc(Nc3ccc(C(=O)NC4CCC(N5CCCC5)CC4)cc3OC)nc2N1C1CCCC1` (stereo not drawn) [Example 138]: the 50% inhibitory concentration (IC50) with HeLaS3 cells amounted to 43 nM; in the assay on H460-VINC, 1140 nM.

Turning to `COc1cc(C(=O)NC2CCN(C)CC2)ccc1Nc1ncc2c(n1)N(CC(C)(C)C)C(C)C(=O)N2C` (stereo not drawn) [Example 145], the figures for the IC50 in the assay with HeLaS3 cells and in the assay with H460-VINC were 43 nM and at least 3000 nM, respectively.

As to `COc1cc(C(=O)NC2CCN(C)CC2)ccc1Nc1ncc2c(n1)N(CCC(C)C)C(C)C(=O)N2C` (stereo not drawn) [Example 146], the results for the IC50 with HeLaS3 cells and with H460-VINC were 66 nM and 966 nM, respectively.

On to `CC[C@@H]1C(=O)N(C)c2cnc(Nc3ccc(C(=O)NCCCCN(CC)CC)cc3OC)nc2N1CCC(C)C` [Example 153], for which the IC50 was 72 nM in the assay with HeLaS3 cells and 2640 nM in the assay on H460-VINC.

For the molecule `CC[C@@H]1C(=O)N(C)c2cnc(Nc3ccc(C(=O)NCCN4CCOCC4)cc3OC)nc2N1CCC(C)C` [Example 156], the IC50 is 48 nM with HeLaS3 cells and 481 nM with H460-VINC.

Regarding `CC[C@@H]1C(=O)N(C)c2cnc(Nc3ccc(C(=O)NCCN(CC)CC)cc3OC)nc2N1CCC(C)C` [Example 158], the half-maximal inhibitory concentration (IC50) in the assay with HeLaS3 cells was found to be 43 nM; in the assay with H460-VINC, 536 nM.

Regarding `CC[C@@H]1C(=O)N(C)c2cnc(Nc3ccc(C(=O)NCCN(C(C)C)C(C)C)cc3OC)nc2N1CCC(C)C` [Example 160], the 50% inhibitory concentration (IC50) in the assay with HeLaS3 cells stood at 37 nM; with H460-VINC, 728 nM.

Turning to `COc1cc(C(=O)NC2CCN(C)CC2)ccc1Nc1ncc2c(n1)N(CCC(C)C)C(C)(C)C(=O)N2C` [Example 162], the IC50 in the assay on HeLaS3 cells is 71 nM; with H460-VINC, 903 nM.

Turning to `CC[C@@H]1C(=O)N(C)c2cnc(Nc3ccc(C(=O)NCCCN(C)C)cc3OC)nc2N1CCC(C)C` [Example 164], the figures for the IC50 in the assay on HeLaS3 cells and with H460-VINC were 30 nM and 975 nM, respectively.

Take `CC[C@@H]1C(=O)N(C)c2cnc(Nc3ccc(C(=O)NCCCN(CC)CC)cc3OC)nc2N1CCC(C)C` [Example 165]: the IC50 with HeLaS3 cells stood at 46 nM; in the assay on H460-VINC, 668 nM.

As for `CC[C@@H]1C(=O)N(C)c2cnc(Nc3ccc(C(=O)NCCC4CCCN4C)cc3OC)nc2N1CCC(C)C` (stereo partly drawn) [Example 167], the IC50 with HeLaS3 cells was determined as 34 nM; in the assay with H460-VINC, 817 nM.

As for `CC[C@@H]1C(=O)N(C)c2cnc(Nc3ccc(C(=O)NCC(C)(C)CN(C)C)cc3OC)nc2N1CCC(C)C` [Example 168], the IC50 was determined as 42 nM in the assay with HeLaS3 cells and 88 nM in the assay on H460-VINC.

For the molecule `CC[C@@H]1C(=O)N(C)c2cnc(Nc3ccc(C(=O)NCCCN4CCCCC4)cc3OC)nc2N1CCC(C)C` [Example 169], the figures for the IC50 in the assay with HeLaS3 cells and with H460-VINC were 44 nM and 503 nM, respectively.

For `CC[C@@H]1C(=O)N(C)c2cnc(Nc3ccc(C(=O)NCCN4CCCC4)cc3OC)nc2N1CCC(C)C` [Example 170], the IC50 is 45 nM with HeLaS3 cells and 427 nM in the assay with H460-VINC.

Regarding `CC[C@@H]1C(=O)N(C)c2cnc(Nc3ccc(C(=O)NC4CCN(C)CC4)cc3OC)nc2N1CCC(C)C` [Example 171], the half-inhibitory concentration (IC50) in the assay on HeLaS3 cells stood at 31 nM; with H460-VINC it was 790 nM.
